Test results reported in publication PMC9196127, “Novel STAT3 Inhibitors Targeting STAT3 Dimerization by Binding to the STAT3 SH2 Domain” (Frontiers in Pharmacology, 2022).

Target: STAT3 (Homo sapiens, UniProt P40763)
Experiment: Fluorescence polarization (FP) competition assay with 5-FLU-GpYLPQTV-NH2
Type: binding
Parameters: purchased Abcam ab43618
Conditions: FP assay
Method: The FP assay was conducted as described in [Zhao et al. (2010]). The fluorochrome-labeled phosphopeptide, 5-FLU-G (pY)LPQTV-NH2, was synthesized by ProImmune (London, United Kingdom) with over 95% purity as a probe. The recombinant human STAT3 protein was purchased from Abcam (ab43618). To obtain an inhibitory effect, drugs (0–1,000 μM) and 150 nM human STAT3 were incubated at 37°C in an assay buffer (50 mm NaCl, 10 mm HEPES, 1 mm EDTA, and 0.01% Triton X-100) for 1 h prior to co-incubation with 10 nM of the fluorochrome-labeled peptide at RT for 30 min. The plate was sealed under nitrogen and left at RT for 72 h. The fluorescence polarization was then analyzed by the BioTek Synergy™ Neo2 Multi-Mode Microplate Reader (BioTek Instruments, Winooski, VT, United States). Binding curves were fit to a log-logistic function using the R package drc. Ki was determined from the resulting IC50 using the Cheng–Prusoff equation and the Kd for fluorochrome-labeled peptide binding to STAT3, Ki = IC50/(([L])/Kd) +1. […]
FIGURE 4 Fluorescence polarization (FP) assays identified 323s as direct STAT3 SH2 domain binders. (A) Fluorescence polarization (FP) analysis of the binding of 10 nM GpYLTQTV-NH2and 150 nM human STAT3 protein with increasing concentration of drugs. […]

Sequence of STAT3 (P40763 whole entry): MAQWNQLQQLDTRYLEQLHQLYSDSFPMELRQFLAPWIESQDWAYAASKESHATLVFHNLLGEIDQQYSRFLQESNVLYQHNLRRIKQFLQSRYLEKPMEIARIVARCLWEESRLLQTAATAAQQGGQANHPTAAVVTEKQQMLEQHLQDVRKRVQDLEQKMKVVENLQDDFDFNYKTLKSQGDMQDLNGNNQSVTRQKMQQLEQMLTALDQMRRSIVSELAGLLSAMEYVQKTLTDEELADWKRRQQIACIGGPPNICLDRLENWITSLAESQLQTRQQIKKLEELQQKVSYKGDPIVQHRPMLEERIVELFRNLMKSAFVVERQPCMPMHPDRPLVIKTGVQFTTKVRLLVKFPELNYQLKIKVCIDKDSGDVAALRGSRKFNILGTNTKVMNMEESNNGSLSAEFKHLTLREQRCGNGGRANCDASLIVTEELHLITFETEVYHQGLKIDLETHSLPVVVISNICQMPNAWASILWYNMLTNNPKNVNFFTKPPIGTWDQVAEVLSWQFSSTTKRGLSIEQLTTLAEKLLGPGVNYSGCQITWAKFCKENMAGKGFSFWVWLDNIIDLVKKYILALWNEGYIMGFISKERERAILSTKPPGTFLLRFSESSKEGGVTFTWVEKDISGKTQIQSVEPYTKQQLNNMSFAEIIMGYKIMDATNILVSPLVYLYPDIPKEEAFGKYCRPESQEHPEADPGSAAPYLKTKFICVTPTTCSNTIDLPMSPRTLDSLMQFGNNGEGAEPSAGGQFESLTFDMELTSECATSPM

Row | SMILES | potency to disrupt STAT3/GpYLPQTV relative to S3I-201
1 | C[C@@H]1CCC(c2cc3c4c(cncc4c2)[C@H](C)C3)=C1C=O [323–1, (15R,2R)-delavatine A] | around five-fold more potently than S3I-201
2 | C[C@@H]1CCC(c2cc3c4c(cncc4c2)[C@@H](C)C3)=C1C=O [323–2, (15S,2R)-delavatine A] | around five-fold more potently than S3I-201
